Data reported in PubChem BioAssay (NCI).
“And” between values parts separate entries of the source, which are not always exact repeats. Equal entries are not always repeated.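 Each compound was tested at five concentrations against cells in 96-well plates for 48 hours. GI50 is the concentration that inhibits growth by half. TGI: total growth inhibition.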

Assays:
Assay in all cases: NCI anticancer screen, dose series, 48 h
MCF7 breast = tested on: MCF7 breast
SF-295 CNS = tested on: SF-295 CNS
ACHN renal = tested on: ACHN renal
UACC-257 melanoma = tested on: UACC-257 melanoma
SK-MEL-5 melanoma = tested on: SK-MEL-5 melanoma
SK-MEL-2 melanoma = tested on: SK-MEL-2 melanoma
A498 renal = tested on: A498 renal
NCI-H226 lung = tested on: NCI-H226 lung
MDA-MB-435 = tested on: MDA-MB-435
SN12C renal = tested on: SN12C renal

Structure (SMILES)	TGI (MCF7 breast)	TGI (SF-295 CNS) [µM]	TGI (ACHN renal) [µM]	TGI (UACC-257 melanoma)	TGI (SK-MEL-5 melanoma)	TGI (SK-MEL-2 melanoma) [µM]	TGI (A498 renal)	TGI (NCI-H226 lung)	TGI (MDA-MB-435) [µM]	TGI (SN12C renal) [µM]	GI50 (MCF7 breast)	GI50 (SF-295 CNS)	GI50 (ACHN renal)	GI50 (UACC-257 melanoma)	GI50 (SK-MEL-5 melanoma)	GI50 (SK-MEL-2 melanoma)	GI50 (A498 renal) [µM]	GI50 (NCI-H226 lung)	GI50 (MDA-MB-435)	GI50 (SN12C renal)
O=C1CC=C2C3CC4N(CCC45c4ccccc4N1C25)C/C3=C\CO (configuration not stated)	> 100 µM	> 100	> 100	> 100 µM	> 100 µM	> 100	> 100 µM	> 100 µM	> 100	> 100	–	–	–	–	–	–	–	–	–	–
COc1ccc(NC(=O)c2ccc(C(F)(F)F)nc2Nc2ccc(Cl)cc2C)cc1Cl	13.1 µM	12.7	18.6	24 µM	18.7 µM	21	17.5 µM	14.4 µM	25.9	14	2.42 µM	2.32 µM	5.36 µM	10.8 µM	4.09 µM	7.33 µM	5.02	2.99 µM	7.99 µM	3.65 µM
O=C(O)c1nn(-c2ccc(Cl)cc2)c2c1C(=O)c1ccccc1C2=O	> 100 µM	> 100	> 100	> 100 µM	53.6 µM	> 100	> 100 µM	> 100 µM	> 100	> 100	–	–	–	–	–	–	–	–	–	–
CC1(C)CC[C@]2(C(=O)NCCNCCN)CC[C@]3(C)C(=CC[C@@H]4[C@@]5(C)CCC(=O)C(C)(C)[C@@H]5CC[C@]43C)[C@@H]2C1	3.08 µM	3.39	3.2	3.85 µM	3.22 µM	4.05	23.6 µM	36.1 µM	3.19	3.13	1.55 µM	1.83 µM	1.77 µM	1.86 µM	1.8 µM	1.94 µM	8.01	11 µM	1.75 µM	1.68 µM
CN1CCN(c2ccncc2S(=O)(=O)N2CCN(C)CC2)CC1	> 100 µM	> 100	> 100	> 100 µM	> 100 µM	> 100	> 100 µM	> 100 µM	> 100	–	–	–	–	–	–	–	–	–	–	–
Cn1cc(-c2ncnc3ccc(-c4cnc(Cl)c(NS(C)(=O)=O)c4)cc23)c2ccccc21	> 100 µM	3.82	> 100	7.05 µM	3.07 µM	4.85	1.4 µM	74.7 µM	10.8	> 100	0.205 µM	0.298 µM	0.781 µM	0.959 µM	1.2 µM	1.16 µM	0.207	1.25 µM	0.514 µM	0.856 µM
NC(CCl)=NCC12CC3CC(CC(C3)C1)C2	6.9 µM	16.2	11.6	5.27 µM	3.79 µM	7.46	13.4 µM	11.3 µM	7.11	15.7	0.557 µM	2.29 µM	0.567 µM	1.75 µM	0.973 µM	2.06 µM	1.37	1.43 µM	0.474 µM	1.56 µM
CCC(CO)Nc1nc(NCc2ccccc2)c2n[nH]c(C(C)C)c2n1 (configuration not stated)	25.9 µM	32.7	16.9	35.6 µM	17.3 µM	21.4	24.4 µM	60.8 µM	24	31.7	5.92 µM	16.1 µM	4.42 µM	16.6 µM	4.91 µM	5.15 µM	11.6	23.8 µM	10 µM	14.1 µM
O=C1/C(=C/c2ccc(Cl)cc2)N=C(c2ccccc2)N1c1cc(C(F)(F)F)ccc1Cl	57.9 µM	48.8	> 100	99.6 µM	29.5 µM	45.4	> 100 µM	> 100 µM	71.4	> 100	17.6 µM	17.2 µM	22.1 µM	26.9 µM	16 µM	17.5 µM	36.7	23.6 µM	22.7 µM	30.5 µM
C[C@]1(c2nc3c(C(N)=O)cccc3[nH]2)CCCN1	> 100 µM	> 100	> 100	> 100 µM	> 100 µM	> 100	> 100 µM	> 100 µM	> 100	> 100	34.2 µM and > 71.3 µM	56.1 µM and > 58.3 µM	41.8 µM and > 100 µM	99.9 µM and > 100 µM	> 76.4 µM and 98.5 µM	79.4 µM and > 100 µM	> 100	50.6 µM and > 74.5 µM	> 100 µM	79.9 µM and > 85.5 µM
Cn1cnc(SC2=CC(=O)C=C3S[C@H]4C[C@@]23c2c(c(O)c3c5c2=NCCC=5C=N3)N4)c1CC(N)C(=O)O (some centres not stated)	11.5 µM	29.6	29.1	23.8 µM	27.6 µM	24.7	32.7 µM	33.8 µM	3.44	19.1	–	15.9 µM	15.6 µM	11.6 µM	14.5 µM	9.62 µM	18.1	15.8 µM	1.88 µM	7.26 µM
CCCCCCCC(=O)Nc1nc2[nH]c(CN3CCN(Cc4cccc(I)c4)CC3)c(CN3CCN(Cc4cccc(I)c4)CC3)c2c(=O)[nH]1	1.51 µM	1.55	1.61	2.44 µM	1.9 µM	2.05	1.62 µM	2.59 µM	1.55	1.75	0.793 µM	0.843 µM	0.892 µM	1.14 µM	0.973 µM	0.97 µM	0.8	1.16 µM	0.823 µM	0.916 µM
[Mn+3].[O-][Cl+3]([O-])([O-])O.[O-]c1ccccc1C=NCCN1CC1.[O-]c1ccccc1C=NCCN1CC1	> 100 µM	58	72.9	46.2 µM	80.8 µM	> 100	> 100 µM	35.8 µM	> 100	> 100	26.7 µM	18.6 µM	23.5 µM	18.1 µM	17.6 µM	48.5 µM	> 100	12.3 µM	37 µM	19.4 µM
C#Cc1cccc(Nc2nc(C)nc3cc(NC(=O)CCl)ccc23)c1	4.05 µM	6.86	6.67	7.62 µM	7.04 µM	7.9	7.64 µM	8.25 µM	4.75	3.58	0.836 µM	3.39 µM	2.98 µM	4.07 µM	3.56 µM	3.9 µM	3.65	3.06 µM	1.49 µM	0.896 µM
Oc1cccc2ccc(SSc3ccc4cccc(O)c4n3)nc12	18.9 µM	33.7	29.7	43.2 µM	> 100 µM	39.9	77.4 µM	> 100 µM	37.5	37	–	–	–	–	–	–	–	–	–	–
Oc1cccc2cccnc12	5.05 µM and > 31.6 µM	> 100	> 100	27.3 µM and > 100 µM and > 27.8 µM	36.7 µM and 45.2 µM and > 71.7 µM	> 74.5	27.7 µM and 56.4 µM and > 100 µM	37.4 µM and > 100 µM and > 84 µM	> 100	> 100	1.72 µM and 3.31 µM	–	5.98 µM and 23.1 µM and 6 µM	–	–	> 20.7 µM and 8.34 µM	–	8.82 µM and 44.4 µM and 28.6 µM	13.3 µM and 21.5 µM and 5.94 µM	5.56 µM and 29.8 µM and 4.23 µM
CO[C@H]1/C=C/O[C@@]2(C)Oc3c(C)c(O)c4c(O)c(c(/C=N/N5C(C)CN(Cc6ccc(C#N)cc6)CC5C)c(O)c4c3C2=O)NC(=O)/C(C)=C\C=C\[C@H](C)[C@H](O)[C@@H](C)[C@@H](O)[C@@H](C)[C@H](OC(C)=O)[C@@H]1C (some centres not stated)	24.3 µM	12.2	16.2	15.8 µM	12.3 µM	15.9	14 µM	12.9 µM	23.5	13.6	6.37 µM	2.88 µM	7.89 µM	6.35 µM	5.91 µM	7.92 µM	7.06	6.06 µM	8.58 µM	6.73 µM
Oc1c(CN2CCCCC2)ccc2cccnc12	14.8 µM	15.4	> 100	83.3 µM	42.6 µM	24.4	21.3 µM	16 µM	21.4	> 100	3.38 µM	2.69 µM	1.87 µM	2.91 µM	3.56 µM	4.03 µM	5.46	2.41 µM	4.65 µM	4.62 µM
O=c1cc(-c2ccccc2)oc2c(O)c(O)ccc12	> 100 µM	> 100	> 100	88.5 µM	45.2 µM	> 100	> 100 µM	> 100 µM	> 100	> 100	20 µM	7.8 µM	5.69 µM	18.6 µM	12.5 µM	44.9 µM	21.5	21 µM	13 µM	12.2 µM
COc1ccc(-c2oc3ncnc(N)c3c2-c2ccc(NC(=O)Nc3cc(C(F)(F)F)ccc3F)cc2)cc1	3.21 µM	7.47	7.89	6.69 µM	4.41 µM	3.5	2.55 µM	8.36 µM	3.95	3.75	0.675 µM	1.88 µM	0.95 µM	2.46 µM	1.52 µM	1.01 µM	0.329	0.601 µM	0.871 µM	0.828 µM
COC(=O)[C@@H](C)C[C@H](Cc1ccc(F)cc1)NC(=O)c1csc([C@@H](C[C@H](C(C)C)N(C)C(=O)[C@@H](NC(=O)[C@H]2CCCCN2C)C2CC2)OC(C)=O)n1	> 25 µM	> 25	> 25	> 25 µM	1.46 µM	> 25	6.87 µM	> 13.9 µM	0.109	> 25	0.0587 µM	0.585 µM	1.98 µM	> 15.5 µM	0.0957 µM	0.169 µM	0.598	1.26 µM	0.0194 µM	0.357 µM
Cc1ccc(NC(=O)CCc2nnc3s/c(=C\C=C\c4ccccc4)c(=O)n23)cc1	> 100 µM	> 100	> 100	> 100 µM	> 100 µM	> 91.9	> 100 µM	> 100 µM	> 100	> 100	–	–	–	–	–	–	–	–	–	–
COc1cc(OCCCN2CCCC2)ccc1Nc1ncc(Cl)c(Nc2ccccc2P(C)(C)=O)n1	19.3 µM	14.2	16.7	24 µM	15.8 µM	6.21	1.12 µM	6.45 µM	> 42.6	25.5	0.867 µM	2.7 µM	2.46 µM	6.42 µM	3.71 µM	2.24 µM	0.175	1.59 µM	1.65 µM	2.52 µM
COc1ccc(-c2c(NC(=O)Nc3ccc(Cl)c(C(F)(F)F)c3)cnn2-c2ccc(S(N)(=O)=O)cc2)cc1	9.22 µM	10.9	14.2	12 µM	3.85 µM	5.52	8.29 µM	14.6 µM	9.6	13.1	2.67 µM	2.72 µM	3.97 µM	3.29 µM	1.9 µM	2.42 µM	2.84	3.23 µM	2.77 µM	3.58 µM
C=C[C@@H]1CCC/C=C/[C@@H]2C[C@H](O)C[C@H]2[C@H](O)/C=C/C(=O)O1	–	> 100	> 100	> 100 µM	0.331 µM	8.53	0.763 µM	0.784 µM	> 100	> 100	0.388 µM	0.912 µM	1.03 µM	0.317 µM	0.175 µM	0.832 µM	0.261	0.265 µM	0.435 µM	1.53 µM
CC(C)(C)c1cc[n+](C[n+]2ccc(C(C)(C)C)cc2)cc1	> 100 µM	> 100	> 100	–	> 100 µM	> 100	> 100 µM	> 100 µM	> 100	> 100	–	–	–	–	–	–	–	–	–	–
